# US20210177952A1, “METHOD AND COMPOSITION FOR STIMULATING IMMUNE RESPONSE” (BeyondSpring Pharmaceuticals, Inc., priority 2018, published 2021)
# Like-named read-outs stand apart in the source and are kept apart here.
# How the values were obtained:
# ovalbumin IgG1 = assay: Serum anti-ovalbumin IgG1 ELISA after OVA/CFA immunization of mice; format: in vivo, Mouse, C57BL6; settings: for anti-OVA IgG1 concentrations in serum: 7.5 and 10 mg/kg IP BID for a single day, 3, 6, 14 or 28 days after immunization, Day 30 and Day 62 samples
# Procedure: A study was performed to evaluate the effect of plinabulin on boosting B-cell response to immunization. Samples were prepared using an emulsion of complete Freund's adjuvant (CFA) with the foreign protein ovalbumin (OVA), each with varying concentrations of plinabulin (plinabulin doses range from 0.01 mg to 30 mg), and the control was prepared with no plinabulin added. Normal healthy mice were immunized by subcutaneous injection of the CFA+OVA emulsion +/−plinabulin, and/or intraperitoneal injection of ALUM+OVA adjuvant +/−plinabulin (n=5 mice per plinabulin dose group). At different time points as discussed below in this Example, the animals were bled to collect serum for evaluating the concentration of IgG that binds OVA in the serum.
# DOSE PREPARATION OF OVALBUMIN EMULSIONS IN COMPLETE FREUND'S ADJUVANT: EndoFit™ Ovalbumin Kit (InvivoGen, USA), containing 10 mg powder in one glass vial and 10 mL of sterile endotoxin-free physiological water in one glass vial, and CFA 10 mL in one glass vial were received in good condition and stored at 2-8° C. until Day 1. The sterile endotoxin-free saline solution was allowed to reach room temperature before use. Inside a BSL2 cabinet, 5 mL sterile water was added into the vial containing 10 mg of OVA and gently agitated to obtain a homogenous 2 mg/mL OVA solution. To 2.5 mL of CFA, 2.5 mL of OVA solution was added; and the mixture was emulsified by vigorously mixing into two connected 10 mL locking syringes to prepare a 1 mg/mL OVA/CFA emulsion. The emulsification was kept chilled by placing the apparatus into crushed ice for 5 minutes, then mixing and cooling was repeated an additional two times. Stability of the emulsion was tested by adding a drop into water to verify that the emulsion would not dissipate. The emulsion was transferred into five 1 mL syringes for injection and kept cool on crushed ice until immunization. The emulsification processes were repeated with an additional 2.5 mL of OVA solution and 2.5 mL of CFA during immunization of animals to use within 4 hours of preparation.
# DOSE PREPARATION OF TEST ARTICLES: Plinabulin solution (Plin-A) at a 0.75 mg/mL was prepared on each day of dosing. Plinabulin powder (3 mg) was weighed into a separate light protected amber vial at room temperature. Using a micropipette, 284 μL of Tween-80 was added to the amber vial and vortex for 1 minute. 1,020 μL of propylene glycol was added to the amber vial and vortexed for 15 minutes, then sonicated in a water bath for 30 minutes. Finally, 2,696 μL of 5% dextrose in water was added to the solution and vortexed for 3 minutes to achieve 4 mL of a 0.75 mg/mL plinabulin solution. Plinabulin solution (Plin-B) at a 1.0 mg/mL was prepared on each day of dosing. Plinabulin powder (3 mg) was weighed into a separate light protected amber vial at room temperature. Using a micropipette, 213 μL of Tween-80 was added to the amber vial and vortex for 1 minute. 765 μL of propylene glycol was added to the amber vial and vortex for 15 minutes, then sonicated in a water bath for 30 minutes. Finally, 2,022 μL of 5% dextrose in water was added to the solution and vortexed for 3 minutes to achieve 3 mL of a 1.0 mg/mL plinabulin solution.
# ANTI-OVALBUMIN ASSAY: Mouse anti-OVA IgG1 ELISA kits (Cayman Chemical, USA) were purchased to perform the assay. Serum samples from Day 30 were assayed in 1-to-2,000, 1-to-6,000 and 1-to-20,000 dilution. Serum samples from Day 62 were assayed in 1-to-2,000 and 1-to-20,000 dilution. […]
# [1] = mice; cited from earlier work
# [2] = human; cited from earlier work
structure (smiles),measurement,setting,value
"CC(C)(C)c1[nH]cnc1/C=c1\[nH]c(=O)/c(=C/c2ccccc2)[nH]c1=O [Plinabulin, (3Z,6Z)-3-Benzylidene-6-{[5-(2-methyl-2-propanyl)-1H-imidazol-4-yl]methylene}-2,5-piperazinedione]",anti-OVA IgG1 concentrations in serum,ovalbumin IgG1,inhibitory effects on anti-OVA in 4 out of 5 subgroups
same,anti-OVA IgG1 concentrations in serum,ovalbumin IgG1; listed as plinabulin,"significantly reduced, or tended to be reduced"
same,concentration of anti-OVA IgG in serum versus immunization without plinabulin,ovalbumin IgG1; mice immunized with CFA+OVA or ALUM+OVA +/- plinabulin,higher concentrations of anti-OVA IgG
same,OVA IgG1 production in serum on Day 62,"ovalbumin IgG1; subgroup 1: 7.5 mg/kg IP BID, 1 hour after immunization, Day 62",significantly increased OVA IgG1 production
same,production of OVA IgG1 in serum on Day 30,"ovalbumin IgG1; subgroup 1: plinabulin IP BID 3 hours apart, 1 hour after OVA/CFA immunization, Day 30",dose-dependently increased the production of OVA IgG1 on Day 30 without reaching statistical significance
same,plasma elimination half-life,[1],1.5 to 2 h
same,plasma elimination half-life,[2],5 to 6 h
